Test results published in the supplement of paper PMC10307832.

Experiments:
Assay in all cases: relative viability (nuclei count vs DMSO), 5 days (fraction); higher = more cells survive
Decitabine + Dasatinib = compound: Nc1ncn([C@H]2C[C@H](O)[C@@H](CO)O2)c(=O)n1 [Decitabine] + Cc1nc(Nc2ncc(C(=O)Nc3c(C)cccc3Cl)s2)cc(N2CCN(CCO)CC2)n1 [Dasatinib] (partner 0.075 µM)
Method in brief: (§1)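 Cells from lung cancer lines were seeded into 1536-well plates and, one day later, dosed by pin tool. Treatments were either a single drug or a fixed dose of an anchor drug with five library-drug doses (not always all listed) in √10 steps. After 5 days, nuclei were stained in a one-step fixation (final 0.05% Triton X-100, 1% formaldehyde, 1 ug/ml Hoechst) and counted on 4× images, and relative viability is the treated-to-vehicle nuclei ratio, as the median of duplicate plates.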

Decitabine + AZD7762 = compound: Nc1ncn([C@H]2C[C@H](O)[C@@H](CO)O2)c(=O)n1 [Decitabine] + NC(=O)Nc1cc(-c2cccc(F)c2)sc1C(=O)N[C@H]1CCCNC1 [AZD7762] (partner 0.2 µM)
Method in brief: as §1

Decitabine + Vorinostat = compound: Nc1ncn([C@H]2C[C@H](O)[C@@H](CO)O2)c(=O)n1 [Decitabine] + O=C(CCCCCCC(=O)Nc1ccccc1)NO [Vorinostat] (partner 1 µM)
Method in brief: as §1

[1] = compound: O=C(C[C@H]1NCCC[C@@H]1O)Cn1cnc2cc(Br)c(Cl)cc2c1=O (racemic) [Halofuginone] + CC(=O)c1c(C)c2cnc(Nc3ccc(N4CCNCC4)cn3)nc2n(C2CCCC2)c1=O [Palbociclib] (partner 0.5 µM)
Method in brief: as §1

Cell Line | relative viability (Decitabine + Dasatinib; first compound 0.04 µM) | relative viability (Decitabine + Dasatinib; first compound 0.1265 µM) | relative viability (Decitabine + Dasatinib; first compound 0.4 µM) | relative viability (Decitabine + Dasatinib; first compound 4 µM) | relative viability (Decitabine + AZD7762; first compound 0.04 µM) | relative viability (Decitabine + AZD7762; first compound 0.1265 µM) | relative viability (Decitabine + AZD7762; first compound 0.4 µM) | relative viability (Decitabine + AZD7762; first compound 4 µM) | relative viability (Decitabine + Vorinostat; first compound 0.04 µM) | relative viability (Decitabine + Vorinostat; first compound 0.1265 µM) | relative viability (Decitabine + Vorinostat; first compound 0.4 µM) | relative viability (Decitabine + Vorinostat; first compound 4 µM) | relative viability ([1]; first compound 0.001 µM) | relative viability ([1]; first compound 0.003162 µM) | relative viability ([1]; first compound 0.01 µM) | relative viability ([1]; first compound 0.03162 µM) | relative viability ([1]; first compound 0.1 µM) | relative viability (Decitabine + Dasatinib; first compound 1.265 µM) | relative viability (Decitabine + AZD7762; first compound 1.265 µM) | relative viability (Decitabine + Vorinostat; first compound 1.265 µM)
201T | 0.567 | 0.595 | 0.578 | 0.517 | 0.463 | 0.514 | 0.38 | 0.353 | 0.939 | 1.01 | 0.952 | 0.884 | 0.369 | 0.185 | 0.381 | 0.367 | 0.351 | – | – | –
A-427 | 0.51 | 0.341 | 0.214 | 0.206 | 0.464 | 0.512 | 0.425 | 0.285 | 0.789 | 0.732 | 0.526 | 0.396 | 0.526 | 0.538 | 0.534 | 0.49 | 0.479 | 0.196 | 0.278 | 0.411
ABC-1 | 0.451 | 0.553 | 0.588 | 0.421 | 0.668 | 0.814 | 0.712 | 0.84 | – | 0.842 | 0.964 | 0.795 | 0.551 | 0.606 | 0.739 | 0.475 | 0.61 | 0.416 | 0.701 | 0.888
BEN | 0.373 | 0.406 | 0.225 | 0.218 | 0.691 | 0.791 | 0.55 | 0.664 | 0.664 | 0.623 | 0.451 | 0.435 | 0.487 | 0.471 | 0.441 | 0.473 | 0.385 | 0.251 | 0.586 | 0.488
CAL-12T | 0.356 | 0.477 | – | 0.235 | 0.638 | 0.578 | 0.48 | 0.453 | 0.615 | 0.432 | 0.486 | 0.238 | 0.332 | 0.433 | 0.406 | 0.392 | 0.194 | 0.212 | 0.443 | 0.318
COR-L23 | 0.255 | 0.347 | 0.29 | 0.18 | – | – | – | – | 0.258 | 0.259 | 0.184 | 0.126 | 0.328 | 0.303 | 0.344 | 0.292 | 0.139 | 0.161 | – | 0.132
COR-L 105 | 0.254 | 0.353 | 0.262 | 0.305 | – | – | – | – | 0.768 | 0.721 | 0.61 | 0.439 | 0.441 | 0.403 | 0.396 | 0.392 | 0.413 | 0.282 | – | 0.585
ChaGo-K-1 | 0.467 | 0.549 | 0.311 | 0.346 | 0.725 | 0.679 | 0.469 | 0.408 | 0.771 | 0.684 | 0.402 | 0.374 | 0.945 | 0.947 | 0.963 | 0.95 | 0.947 | 0.329 | 0.442 | 0.39
EKVX | 0.479 | 0.494 | 0.368 | 0.329 | 0.505 | 0.611 | 0.549 | 0.33 | 0.455 | 0.506 | 0.507 | 0.335 | 0.377 | 0.352 | 0.415 | 0.444 | 0.306 | 0.36 | 0.394 | 0.432
